Source: PubChem BioAssay (NCI)
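Method: 48-hour compound exposure of cells in 96-well plates, five concentrations, linear interpolation of endpoints. TGI: total growth inhibition.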

What was measured:
Experiment in all cases: NCI tumour cell line growth inhibition, 48 h
[1] = tested on: RPMI-8226 leukemia
[2] = tested on: MDA-N
[3] = tested on: OVCAR-3 ovarian
[4] = tested on: NCI-H522 lung
[5] = tested on: M14 melanoma
[6] = tested on: SNB-19 CNS
[7] = tested on: HCC-2998 colon
[8] = tested on: SK-MEL-5 melanoma
[9] = tested on: OVCAR-5 ovarian
[10] = tested on: MOLT-4 leukemia
[11] = tested on: RXF 393 renal
[12] = tested on: SNB-75 CNS
[13] = tested on: NCI-H226 lung
[14] = tested on: A498 renal
[15] = tested on: UO-31 renal
[16] = tested on: HT29 colon
[17] = tested on: UACC-62 melanoma
[18] = tested on: TK-10 renal
[19] = tested on: OVCAR-8 ovarian
[20] = tested on: SK-MEL-28 melanoma
[21] = tested on: HCT-15 colon
[22] = tested on: SF-295 CNS
[23] = tested on: UACC-257 melanoma
[24] = tested on: CAKI-1 renal
[25] = tested on: MCF7 breast
[26] = tested on: NCI/ADR-RES ovarian
[27] = tested on: KM12 colon
[28] = tested on: SW-620 colon
[29] = tested on: LOX IMVI melanoma
[30] = tested on: SK-MEL-2 melanoma
[31] = tested on: NCI-H23 lung
[32] = tested on: CCRF-CEM leukemia
[33] = tested on: U251 CNS
[34] = tested on: MALME-3M melanoma
[35] = tested on: HS 578T breast
[36] = tested on: MDA-MB-231 breast
[37] = tested on: A549 NSCLC
[38] = tested on: IGROV1 ovarian
[39] = tested on: 786-0 renal
[40] = tested on: DU-145 prostate
[41] = tested on: BT-549 breast
[42] = tested on: PC-3 prostate
[43] = tested on: SF-268 CNS
[44] = tested on: SN12C renal
[45] = tested on: HCT-116 colon
[46] = tested on: NCI-H460 lung
[47] = tested on: OVCAR-4 ovarian
[48] = tested on: COLO 205 colon
[49] = tested on: SK-OV-3 ovarian
[50] = tested on: ACHN renal
[51] = tested on: K-562 leukemia
[52] = tested on: HL-60(TB) leukemia
[53] = tested on: HOP-62 NSCLC
[54] = tested on: SR leukemia
[55] = tested on: T-47D breast
[56] = tested on: EKVX NSCLC
[57] = tested on: MDA-MB-435
[58] = tested on: HOP-92 NSCLC
[59] = tested on: SF-539 CNS

Measured: TGI

O=C(O)C/C=C/CC(=O)O
not listed: [58] | [59]
> 100 µM: all other assays above

O=c1oc2ccccc2cc1/C=N/N1C(=S)N(c2ccccc2)C(=Nc2ccccc2)C1=Nc1ccccc1
not listed: [14] | [16] | [29] | [32] | [47] | [52]
> 100 µM: all other assays above
